# Key:
# [1] = tested on: Human colon adenocarcinoma WiDr cells; experiment: In vitro antitumor test (trypan blue exclusion viable cell count), WiDr; format: cell-based
# Experimental: (§1) An appropriate amount of NFD was dissolved in DMSO to give a 1.0 mg/ml stock solution, which was diluted as necessary before use.
# (§2) The following cells in the late logarithmic phase were harvested after treatment with trypsin (containing 0.25% trypsin and 0.02% EDTA; 37° C., 3 min) and used in the test: human lung adenocarcinoma cell lines A-549, VMRC-LCD and SK-LU-1, human lung squamous cell carcinoma Calu-1 cells, human colon adenocarcinoma WiDr cells, human prostate cancer LNCaP cells, human vaginal squamous cell carcinoma A-431 cells, human cervical carcinoma HeLa cells, human cholangiocarcinoma HuCC-T1 cells, mouse skin cancer melanoma B16 (M4) cells, human pancreatic carcinoma ASPC-1 cells, human neuroblastoma IMR-132 cells, human lung small cell carcinoma SCCH-194 cells, human uninary bladder carcinoma T24 cells, human renal cell carcinoma […] cells, human gastric cancer NUGC-2 cells, human thyroid carcinoma 8305C cells, human hepatoma HUH-7 cells, human ovarian carcinoma TYK-nu cells and human chorio carcinoma BeWo cells. Suspension cultures of human breast cancer MRK-nu-1 cells, human malignant B-cell lymphoma cells and human chronic myelogenous leukemia K562 cells were used to harvest the cells to be used in the test. […] These cells were plated onto a 96-well microplate at a density of 5-10×10^3 cells/cm^2 using DMEM or RPMI-1640 medium containing 10% fetal bovine serum and cultured for 24 hours in a conventional manner, after which a pre-determined amount of NFD dissolved in DMSO was added to each well. Cultivation was continued, and the number of viable cells was counted after 24, 48 and 72 hours. […]
# (§3) Growth inhibitory action and lethal activity of NFD on various types of malignant tumor cells and normal human cells listed above were evaluated by counting the number of viable cells in each well of the 96-well microplate. […]
# [2] = tested on: Human thyroid carcinoma 8305C cells; experiment: In vitro antitumor test (trypan blue exclusion viable cell count), 8305C; format: cell-based
# Experimental: as §1
# as §2, with “cells.” for “cells. Suspension cultures of human breast cancer MRK-nu-1 cells, human malignant B-cell lymphoma cells and human chronic myelogenous leukemia K562 cells were used to harvest the cells to be used in the test.”, “well.” for “well. Cultivation was continued, and the number of viable cells was counted after 24, 48 and 72 hours.”
# malignant tumor cells = experiment: In vitro antitumor test, panel of malignant tumor cells; format: cell-based, human and mouse
# Experimental: as §1
# The antitumor effect of NFD on human cancer cells and mouse cancer cells was assessed according to the following methods.
# as §2, §3
# [3] = tested on: Human chorio carcinoma BeWo cells; experiment: In vitro antitumor test (trypan blue exclusion viable cell count), BeWo; format: cell-based
# Experimental: as §1
# as §2, with “cells.” for “cells. Suspension cultures of human breast cancer MRK-nu-1 cells, human malignant B-cell lymphoma cells and human chronic myelogenous leukemia K562 cells were used to harvest the cells to be used in the test.”, “well.” for “well. Cultivation was continued, and the number of viable cells was counted after 24, 48 and 72 hours.”
# [4] = tested on: Human cervical carcinoma HeLa cells; experiment: In vitro antitumor test (trypan blue exclusion viable cell count), HeLa; format: cell-based
# Experimental: as §1
# as §2, with “cells.” for “cells. Suspension cultures of human breast cancer MRK-nu-1 cells, human malignant B-cell lymphoma cells and human chronic myelogenous leukemia K562 cells were used to harvest the cells to be used in the test.”, “well.” for “well. Cultivation was continued, and the number of viable cells was counted after 24, 48 and 72 hours.”
# [5] = tested on: Human lung adenocarcinoma SK-LU-1 cells; experiment: In vitro antitumor test (trypan blue exclusion viable cell count), SK-LU-1; format: cell-based; settings: 72 h, three days exposure, read-out: LD50 (IC50), 50% growth-inhibitory dose
# Experimental: as §1
# as §2, with “cells.” for “cells. Suspension cultures of human breast cancer MRK-nu-1 cells, human malignant B-cell lymphoma cells and human chronic myelogenous leukemia K562 cells were used to harvest the cells to be used in the test.”, “well.” for “well. Cultivation was continued, and the number of viable cells was counted after 24, 48 and 72 hours.”
# [6] = tested on: Human lung adenocarcinoma A-549 cells; experiment: In vitro antitumor test (trypan blue exclusion viable cell count), A-549; format: cell-based; settings: A549, 72 h, three days exposure, read-out: LD50 (IC50), 50% growth-inhibitory dose
# Experimental: as §1
# as §2, with “cells.” for “cells. Suspension cultures of human breast cancer MRK-nu-1 cells, human malignant B-cell lymphoma cells and human chronic myelogenous leukemia K562 cells were used to harvest the cells to be used in the test.”, “well.” for “well. Cultivation was continued, and the number of viable cells was counted after 24, 48 and 72 hours.”
# [7] = tested on: Human gastric cancer NUGC-2 cells; experiment: In vitro antitumor test (trypan blue exclusion viable cell count), NUGC-2; format: cell-based
# Experimental: as §1
# as §2, with “cells.” for “cells. Suspension cultures of human breast cancer MRK-nu-1 cells, human malignant B-cell lymphoma cells and human chronic myelogenous leukemia K562 cells were used to harvest the cells to be used in the test.”, “well.” for “well. Cultivation was continued, and the number of viable cells was counted after 24, 48 and 72 hours.”
# Normal human renal cells = experiment: In vitro growth test on normal cells, renal cells; format: cell-based
# Experimental: as §1, §2, §3
# [8] = 72 h, three days exposure, read-out: LD50 (IC50), 50% growth-inhibitory dose
smiles,measurement,setting,value
"CC(O)c1cc2c(o1)C(=O)c1cccc(O)c1C2=O (stereo not shown) [NFD, 2-(1-hydroxyethyl)-5-hydroxynaphtho[2,3-b]furan-4,9-dione]",concentration causing necrosis in almost all tumor cells,[1]; FIG. 5,44.7 to 55.9 ng/mL
same,IC50,"[1]; Homo sapiens, 72 h, WiDr, three days exposure, read-out: LD50 (IC50), 50% growth-inhibitory dose",0.011 mg/L
same,IC (almost complete),"[1]; Homo sapiens, WiDr, FIG. 5, read-out: concentration inhibiting growth almost completely",0.0224 to 0.0335 µg/mL
same,IC50,[2]; [8],0.025 mg/L
same,IC (almost complete),"[2]; FIG. 19, read-out: concentration inhibiting growth almost completely",0.028 µg/mL
same,selective toxicity to tumor cells,malignant tumor cells; 23 listed tumor cells,exhibits selective toxicity
same,growth inhibition of tumor cells,"malignant tumor cells; at low concentrations, 23 listed tumor cells",remarkably inhibits the growth
same,IC50,malignant tumor cells; read-out: LD50 (IC50) range over malignant tumor cells,0.0055 to 0.025 mg/L
same,IC50,[3]; [8],0.018 mg/L
same,IC (almost complete),"[3]; FIG. 23, read-out: concentration inhibiting growth almost completely",0.0343 µg/mL
same,IC50,[4]; [8],0.018 mg/L
same,IC (almost complete),"[4]; FIG. 8, read-out: concentration inhibiting growth almost completely",0.0224 µg/mL
same,IC50,[5],0.017 mg/L
same,IC50,[6],0.0095 mg/L
same,IC50,"[7]; 72 h, NUGC-2, three days exposure, read-out: LD50 (IC50), 50% growth-inhibitory dose",0.017 mg/L
same,IC (almost complete),"[7]; FIG. 18, read-out: concentration inhibiting cells almost completely",0.033 µg/mL
same,adverse effects on growth of normal cells,"Normal human renal cells; FIG. 27, at concentrations which cause necrosis in tumor cells",no adverse effects
same,concentration inhibiting growth of normal renal cells,"Normal human renal cells; FIG. 27, only at higher concentration",0.1 µg/mL
same,IC50,"Normal human renal cells; Homo sapiens, 72 h, normal renal cells, three days exposure, read-out: LD50 (IC50), 50% growth-inhibitory dose",0.065 mg/L

# Source: US5663197A, “2-(1-hydroxyethyl)-5-hydroxynaphtho[2,3-b]furan-4,9-dione and antitumor agents comprising this compound” (priority 1992, dated 1997)
